Experimental data published in patent US11298561B2, “Method of treating multi-drug resistance biofilm using targeted laser and antibiotics” (priority 2013, dated 2022).
Several values for one entry are separate records, joined by “and”; a condition that tells them apart may be missing. Equal entries are not always repeated. Where two headings read alike, the source gives them in different places.

Tests used:
[1] = test system: planktonic P. aeruginosa PA 60-65 cultures; experiment: CFU assay of planktonic P. aeruginosa PA 60-65 cultures; format: cell-based, Pseudomonas aeruginosa; conditions: amikacin 24 h (16-64 μg/mL)
Description: (§1) For planktonic bacteria, broth cultures of SA5120 in TSB and PA 60-65 in BHI were grown for 16-18 h at 37° C. on a shaker at 250 rpm. The cultures were diluted to an OD600 of 0.1 using TSB for SA5120 or BHI for PA 60-65 and incubated at 37° C. for ˜1.5 h to reach an OD600 of 0.3. Samples were treated with antibiotics in triplicate in 5-mL tubes at 37° C. on a shaker at 250 rpm for 24 h, after which 1 mL of culture from each tube was transferred into a fresh tube and centrifuged to pellet the cells. The cell pellets were washed twice in PBS, re-suspended in 1 mL of PBS, serially diluted in PBS, and plated in triplicate on TSA plates. The plates were incubated overnight at 37° C., and the resulting colonies were enumerated and used to calculate CFUs/mL.

[2] = test system: P. aeruginosa PA 60-65 biofilms; experiment: CFU assay of P. aeruginosa PA 60-65 biofilms; format: cell-based, Pseudomonas aeruginosa; conditions: for reduction in P. aeruginosa biofilm viability (CFU): 24 h
Description: (§2) Two MDR clinical wound isolates, namely, methicillin-resistant S. aureus (MRSA) SA5120 and P. aeruginosa PA 60-65, were received as gifts from a repository at the U.S. Army Institute of Surgical Research (JBSA-Fort Sam Houston, Tex.). Biofilms were established on 5-mm glass discs or in 96-well half-area glass-bottom plates that had been pre-treated for 24 h with 1 mg/mL of fibrinogen. Overnight cultures of SA5120 in tryptic soy broth (TSB) were diluted to an optical density at 600 nm (OD600) of 0.1 using TSB supplemented with 10% human plasma, added to empty wells of a 96-well glass-bottom culture plate or to wells containing 5-mm glass discs, and allowed to grow into biofilms for 24 h at 37° C. under static conditions. For PA 60-65, overnight cultures in brain heart infusion broth (BHI) were diluted 20-fold using 20% BHI in phosphate-buffered saline (PBS) supplemented with 0.2% glucose and 0.4% NaCl and grown to an OD600 of 0.5 at 37° C. with shaking at 250 rpm. The bacterial suspension was diluted to an OD600 of 0.01 in PBS, and 20 μL of inoculant was spotted onto 5-mm glass discs placed in 6-well tissue culture plates. Samples were incubated at room temperature for 2 h to allow cell attachment, rinsed in PBS, and then cultured in 20% BHI/0.2% glucose/0.4% NaCl in PBS for 72 h at 37° C. with shaking at 140 rpm. Biofilms were rinsed in PBS and transferred into 96-well glass-bottom plates for subsequent treatment.
(§3) Biofilms grown on glass discs were pre-treated with tGNPs or non-targeted GNPs at 70 μg/mL in PBS for 2 h (SA5120) or 1 h (PA 60-65). The 1-h pre-treatment period for PA 60-65 was selected based upon results from comparison of biofilm dispersion caused by various tGNP incubation times used in combination with laser irradiation (FIG. 10). […] After treatment, samples were analyzed using confocal microscopy, CFU assays, or scanning electron microscopy (SEM).
Biofilms on glass discs were pre-treated with tGNPs at 70 μg/mL in PBS for 2 h (SA5120) or 1 h (PA 60-65). […] Samples were incubated for 24 h at 37° C. and then analyzed using CFU assays or SEM. […]

[3] = test system: MRSA SA5120 biofilms; format: cell-based, Staphylococcus aureus
Description: as §2
MRSA biofilms in 96-well glass-bottom plates or on 5-mm glass discs were pre-treated with increasing concentrations of tGNPs from 0-100 μg/mL in PBS for 2 h. This 2-h treatment duration was selected based upon results from comparison of the extent of biofilm dispersion caused by different tGNP incubation periods used in combination with laser irradiation (FIG. 9). Following the tGNP pre-treatment, unattached tGNPs were washed away using PBS, and 40 μL of PBS was added to the wells. Biofilms were then irradiated with increasing numbers of laser pulses from 0-100 pulses at 532 nm and a fluence of ˜1.0 J/cm^2 using an Nd:YAG laser system (8-ns pulse, 1 Hz; Quantel, Bozeman, Mont.) and an automated XY-gantry sample positioning system operated through LabVIEW software (National Instruments, Austin, Tex.). After exposure, samples were analyzed using confocal microscopy or colony forming unit (CFU) assays.
as §3, with “10). Following the tGNP pre-treatment, samples were rinsed using PBS, and 40 μL of PBS was added to each well. Biofilms were then exposed to 50 laser pulses at 532 nm or sham exposed as described in Supplementary Materials. Biofilms treated with 50 laser pulses alone or PBS alone (controls) were also included.” for “10).”
Biofilms on glass discs were pre-treated with tGNPs at 70 μg/mL in PBS for 2 h (SA5120) or 1 h (PA 60-65). Samples were rinsed with PBS, 40 μL of PBS was added to each well, and biofilms were then exposed to 50 laser pulses at 532 nm or sham exposed. Biofilms treated with 50 laser pulses alone or PBS alone were also included. […]

[4] = test system: planktonic MRSA SA5120 cultures; experiment: CFU assay of planktonic MRSA SA5120 cultures; format: cell-based, Staphylococcus aureus; conditions: for reduction in viability of planktonic MRSA cultures (CFU): antibiotic alone, 24 h (vancomycin 100 μg/mL)
Description: as §1, with “Samples were treated with antibiotics in triplicate in 5-mL tubes at 37° C. on a shaker at 250 rpm for 24 h, after which 1 mL of culture from each tube was transferred into a fresh tube and centrifuged to pellet the cells.” left out

[5] = test system: Staphylococcus epidermidis biofilm; conditions: ns-pulsed laser non-thermal shockwaves combined with 24-h gentamicin treatment; cited from earlier work
[6] = GNP-targeted laser therapy followed by 24-h antibiotic treatment at 100 μg/mL

Q: With NCC[C@H](O)C(=O)N[C@@H]1C[C@H](N)[C@@H](O[C@H]2O[C@H](CN)[C@@H](O)[C@H](O)[C@H]2O)[C@H](O)[C@H]1O[C@H]1O[C@H](CO)[C@@H](O)[C@H](N)[C@H]1O [amikacin] as the molecule, how does the “reduction in viability of planktonic P. aeruginosa cultures (CFU)” value [1] read?
A: Its value is ~4 log.

Q: What about the “reduction in P. aeruginosa biofilm viability (CFU)” value ([2]; GNP-targeted laser therapy in combination with 8 μg/mL amikacin) of the same molecule?
A: Its value is 5 log.

Q: And the “effect of increasing amikacin from 8 to 16 μg/mL in the combination therapy” value ([2]; P. aeruginosa biofilms, with GNP-targeted laser therapy)?
A: Its value is “did not further reduce cell viability”.

Q: What about the “reduction in P. aeruginosa biofilm viability (CFU)” value ([2]; amikacin alone, 8 μg/mL) of the same molecule?
A: Its value is ~1 log.

Q: Which “effect of GNP-targeted laser therapy on antibacterial activity of vancomycin against MRSA biofilms” value ([3]; 24-h vancomycin at 100 or 1000 μg/mL) does the source give for CN[C@H](CC(C)C)C(=O)N[C@H]1C(=O)N[C@@H](CC(N)=O)C(=O)N[C@H]2C(=O)N[C@H]3C(=O)N[C@H](C(=O)N[C@H](C(=O)O)c4cc(O)cc(O)c4-c4cc3ccc4O)[C@H](O)c3ccc(c(Cl)c3)Oc3cc2cc(c3O[C@@H]2O[C@H](CO)[C@@H](O)[C@H](O)[C@H]2O[C@H]2C[C@](C)(N)[C@H](O)[C@H](C)O2)Oc2ccc(cc2Cl)[C@H]1O [vancomycin, Vancomycin] here?
A: Its value is “enhanced the antibacterial activity”.

Q: What about the “reduction in MRSA biofilm viability (CFU)” value [3, 6] of the same molecule?
A: Its value is 2 log.

Q: And the “reduction in viability of planktonic MRSA cultures (CFU)” value [4]?
A: Its value is 4 log and ~3 log.

Q: With gentamicin as the molecule, how does the “reduction in Staphylococcus epidermidis biofilm viability” value [5] read?
A: The value was 1 log.

Q: And the “reduction in MRSA biofilm viability (CFU)” value [3, 6]?
A: Its value is 4 log.

Q: And the “reduction in viable bacteria in MRSA biofilms” value ([3]; GNP-targeted laser therapy followed by 24-h gentamicin at 100 μg/mL)?
A: The value was 99.99%.

Q: What about the “reduction in MRSA biofilm viability (CFU)” value ([3]; antibiotic alone, 100 μg/mL, 24 h) of the same molecule?
A: Its value is 1 log.

Q: What about the “reduction in viability of planktonic MRSA cultures (CFU)” value [4] of the same molecule?
A: Its value is ~4 log.

B1: papain: enzyme used to loosen S. aureus biofilms prior to CFU assay (protein, UniProt P00784 134-345, looked up)
Papain: IPEYVDWRQKGAVTPVKNQGSCGSCWAFSAVVTIEGIIKIRTGNLNEYSEQELLDCDRRSYGCNGGYPWSALQLVAQYGIHYRNTYPYEGVQRYCRSREKGPYAAKTDGVRQVQPYNEGALLYSIANQPVSVVLEAAGKDFQLYRGGIFVGPCGNKVDHAVAAVGYGPNYILIKNSWGTGWGENGYIRIKRGTGNSYGVCGLYTSSFYPVKN
Q: For B1, which “viability of planktonic MRSA cultures” value ([4]; 100 μg/mL papain, 2 or 4 h at 37° C.) is on record?
A: The value was “no reduction in cell viability”.
